Assay [1] concerns the target [^35S]25-nt hnRNP-E1 mRNA cis-element. As to the kind of experiment: Dissociation constant (KD) of GST-hnRNP-E1 or its mutant proteins for the 25-nt hnRNP-E1 mRNA cis-element. It counts as binding, human. The settings on record: L-Homocysteine 0 μM. How it is done:
(§1) Methods for testing the ability of an engineered hnRNP-E1 variant polypeptide to bind to an RNA comprising the sequence of SEQ ID NO:6 are known in the art. Such methods include, but are not limited to, RNA electrophoretic mobility shift assays, as exemplified herein, RNA pull-down assays, and oligonucleotide-targeted RNase H protection assays. Such assays are conducted in the presence or absence of homocysteine to determine the RNA-binding dependence of any particular hnRNP-E1 polypeptide tested on the presence of homocysteine. […] Additional methods are outline in Tang et al. (“Incrimination of heterogeneous nuclear ribonucleoprotein E1 (hnRNP-E1) as a candidate sensor of physiological folate deficiency.” J Biol Chem. 2011; 286(45):39100-39115), which is incorporated herein in its entirety.
(§2) Specific binding was determined by subtracting values of non-specific binding with GST from those of total binding with GST-hnRNP-E1; (however, in Table 1 and FIG. 6G, non-specific binding using bovine serum albumin (BSA) was subtracted from total binding to GST-hnRNP-E1 to determine specific binding). The KD was calculated from a Scatchard plot using GraphPad Prism 6 from GraphPad Software (San Diego, Calif.), as previously described in the art.

In assay [2] the target is [^35S]18-nt folate receptor-α mRNA cis-element. As to the kind of experiment: Dissociation constant (KD) of GST-hnRNP-E1 or its mutant proteins for the 18-nt folate receptor-α mRNA cis-element. The following applies: L-Homocysteine 0 μM; listed as (HA)-hnRNP-E1(C293 S)-mutant. It counts as binding, human. How it is done: as §1, §2
Assay [3] deals with 25-nt hnRNP-E1 mRNA cis-element. As to the kind of experiment: Gel-shift assay of hnRNP-E1 proteins with 25-nt hnRNP-E1 mRNA cis-element. The settings on record: absence of L-homocysteine. In kind it is binding, human. As to the method:
(§3) Parenthetically, there was no significant difference in RNA binding to GST-hnRNP-E1 by use of either 32P-RNA probes or 35S-labeled RNA probes used. Other studies assessed the effect of iron(II) or iron(III) on homocysteine-induced RNA-protein interactions.
(§4) Recombinant GST-plasmid DNA, pGST-hnRNP-E1, pGST-hnRNP-E2, and related engineered variant plasmids were transformed into BL21 Escherichia coli from Novagen (Madison, Wis.). After induction by 1 mM isopropyl-1-thio-ß-D-galactopyranoside, the GST-hnRNP-E1 and engineered variant fusion proteins were individually purified using the B-PER GST Fusion Protein Purification Kit (Pierce, Rockford, Ill.). The eluted GST fusion proteins were dialyzed against 500 volumes of buffer to remove excess reducing reagents (such as dithiothreitol (DTT)) and assayed by SDS-PAGE and Western blots using anti-peptide hnRNP-E1 antiserum. Gel shift assays with target RNA were carried out as described.

Assay [4] relates to 18-nt folate receptor-α mRNA cis-element. As to the kind of experiment: Gel-shift assay of hnRNP-E1 proteins with 18-nt folate receptor-α mRNA cis-element. It counts as binding, human. The following applies: absence of homocysteine or other reducing agent. How it is done:
as §3, §4

Assay [5] relates to HPV16 L2 mRNA cis-element. As to the kind of experiment: Gel-shift assay of hnRNP-E1 proteins with HPV16 L2 mRNA. In kind it is binding, Human Papillomavirus type 16. The settings on record: absence of reducing agents; versus wild-type and G292A. How it is done:
as §3
(§5) Construction of plasmids for generation of HPV16 L2 RNA, gel-shift and in vitro translation studies were carried as described with additional treatments shown in FIGS. 10A-10D

The subject of assay [6] is hnRNP-E1 mRNA. As to the kind of experiment: In vitro translation of hnRNP-E1. It counts as biochemical, human. The following applies: protein added after neutralizing ß-ME by N-ethylmaleimide. As to the method:
(§6) In vitro transcription-translation was carried out using the Linked SP6/T7 In Vitro Transcription/Translation Kit (Roche Applied Science) after addition of one of various targeted DNAs—pSPT18-25-hnRNP-E1 DNA, or Pst1-linearized plasmid pSPT18-folate receptor-α, or HPV16 L2 DNA, (0.5 μg/reaction)—to the transcription mix as described. In other experiments, the capacity for perturbing the interaction of hnRNP-E1 with the 25-nt hnRNP-E1 cis-element during in vitro translation was assessed in the presence of either scrambled oligonucleotides (5′-[…]-3′ SEQ ID NO:20) or specific antisense oligonucleotides (5′-[…]-3′ SEQ ID NO:21) generated against the 25-nt hnRNP-E1 mRNA cis-element (GenScript USA, Piscataway, N.J.).

Assay [7] deals with folate receptor-α mRNA. As to the kind of experiment: In vitro translation of folate receptor-α. In kind it is biochemical, human. The settings on record: presence of 2-mM NEM. As to the method:
In vitro transcription-translation was carried out using the Linked SP6/T7 In Vitro Transcription/Translation Kit (Roche Applied Science) after addition of one of various targeted DNAs—pSPT18-25-hnRNP-E1 DNA, or Pst1-linearized plasmid pSPT18-folate receptor-α, or HPV16 L2 DNA, (0.5 μg/reaction)—to the transcription mix as described. In other experiments, the capacity for perturbing the interaction of hnRNP-E1 with the 25-nt hnRNP-E1 cis-element during in vitro translation was assessed in the presence of either scrambled oligonucleotides (5′-GCGTCGCTCGCTTCGCACGTGCGCC-3′ SEQ ID NO:20) or specific antisense oligonucleotides (5′-GGG AGC GAG CGG GCG GGA G-3′ SEQ ID NO:21) generated against the 25-nt hnRNP-E1 mRNA cis-element (GenScript USA, Piscataway, N.J.).

In assay [8] the test system is HPV16 L2 RNA. As to the kind of experiment: In vitro translation of HPV16 L2 protein. It counts as biochemical, Human Papillomavirus type 16. The settings on record: after quenching excess ß-ME by NEM (2 mM). As to the method: as §6, §5
The test system of assay [9] is 18-nt folate receptor-α mRNA cis-element-linked CAT reporter. As to the kind of experiment: CAT reporter driven by 18-nt folate receptor-α mRNA cis-element, co-transfected with hnRNP-E1 plasmids in HeLa-IU1-HF cells. It counts as cell-based, human. The settings on record: pSV-β-gal normalization. As to the method: A plasmid containing CAT reporter DNA driven by an 18-nucleotide folate receptor-α mRNA cis-element, was constructed as previously described. Briefly, HeLa-IU1-HF cells were grown to 70-80% confluence and then co-transfected with CAT reporter DNA driven by an 18-nucleotide folate receptor-α mRNA cis-element and various construct combinations of either wild-type and mutant hnRNP-E1 plasmids using X-tremeGENE DNA transfection reagent (Roche Applied Science). The transfection reactions were set up with 6-μg DNA and 12-μL XtremeGENE DNA transfection reagent for each well. In these transfection experiments, pSV-ß-gal was used as an internal control to monitor the efficiency of transfection of cells. After 48 h cells were harvested for protein determination using the BCA protein assay (Pierce); ß-galactosidase activity by the ß-galactosidase chemiluminescent assay (Roche Diagnostics); and CAT activity using a CAT ELISA kit (Roche Diagnostics). All experiments were carried out 4 times with 3 replications per treatment. The data from non-transfected cells was used as a background and subtracted from that obtained with transfected cells. All data were normalized using the internal standard and protein concentration for each treatment.

In assay [10] the test system is newly synthesized [^35S]hnRNP-E1 in placental 1584-HF cells. As to the kind of experiment: Biosynthetic rate of hnRNP-E1 after protein transfection into placental 1584-HF cells. In kind it is cell-based, human. The settings on record: protein transfected in placental 1584-HF cells. An excerpt: (§7) Transfection of purified recombinant wild-type or various mutant hnRNP-E1 proteins into cells was achieved using the Xfect™ Protein Transfection Kit (Clontech, Mountain View, Calif.). Briefly, placental 1584-HF cells in 10-cm dishes at 70-80% confluence were transfected with 2.4-mL serum-free medium and Xfect Protein Transfection Reagent (1.2-mL) containing 20-μg of either wild-type hnRNP-E1-, or highest-affinity (HA)-hnRNP-E1(C293S)-mutant, or wild-type-like hnRNP-E1 (G292A)-mutant proteins and 2-μg of ß-galactosidase at 37° C. for 60-min. After cysteine-starvation for 4-h, an aliquot of cells were assessed for ß-galactosidase activity (to measure the efficiency of co-transfection of ß-galactosidase) and the remaining cells were pulsed with L-[^35S]cysteine (250-μCi) and assessed for specific [^35S]cysteine incorporated into folate receptor to determine the biosynthetic rate of this protein. A similar protocol was employed for analysis of newly synthesized [^35S]hnRNP-E1 using anti-hnRNP-E1 antiserum-coupled agarose and control agarose in order to derive values for specific [^35S]cysteine incorporated into hnRNP-E1 and thereby determine the biosynthetic rate of this protein.

In assay [11] the test system is newly synthesized [^35S]folate receptors in placental 1584-HF cells. As to the kind of experiment: Biosynthetic rate of folate receptors after protein transfection into placental 1584-HF cells. In kind it is cell-based, human. The settings on record: protein transfected in placental 1584-HF cells.
Source text: as §7

Where [12] appears, read: listed as (HA)-hnRNP-E1(C293S)-mutant.

These results are taken from patent US10093706B2, “Dominant positive hnRNP-E1 polypeptide compositions and methods” (Indiana University Research and Technology Corporation, priority 2017, dated 2018).

“And” between values parts separate entries of the source, which are not always exact repeats. Equal values may be shown once.

As usually defined, the Kd is the constant that tells how readily two partners part at equilibrium. High values mean weaker binding, low ones tighter binding. In the case of “GST-hnRNP-E1(C293S): highest-affinity mutant, cysteine-293 to serine in the KH3 domain of hnRNP-E1 (SEQ ID NO:2)”, the dissociation constant (Kd) in assay [1] was 390 pM; in assay [2] it was 270 pM and 200 pM. In addition, the RNA-protein gel-shift signal result in [3] is “strong signal”. For the same substance, the RNA-protein signal result in [4] is reported as “strongest RNA-protein signal”. Moreover, the “interaction with HPV16 L2 mRNA on gel-shift assays” value in [5] is recorded as “greater interaction”. Moreover, the “translation of hnRNP-E1 in vitro” value in [6] is “markedly stimulated translation of hnRNP-E1 in vitro”. The “translation of folate receptor-α” value in [7] was “maximally increased”. The “HPV16 L2 protein signal” value in assay [8] is “progressive reduction in signal”. Besides, the “folate receptor-α cis-element-linked CAT activity versus wild-type hnRNP-E1 or G292A control” value in assay [9] was “two and one-half times stronger”. The “[^35S]cysteine-hnRNP-E1” value in assay [10] is on record as 6.70 ± 1.74 c fmol/mg protein/h; in assay [10] (setting [12]), 6.70 fmol/mg protein/h. In [10], the “increase in the rate of biosynthesis of [^35S]hnRNP-E1” value is given as “over 6 fold”. Moreover, the “[^35S]cysteine-folate receptor” value in assay [11] was 6.62 ± 0.74 c fmol/mg protein/h; in assay [11] (setting [12]), 6.62 fmol/mg protein/h. Further, the “increase of [^35S]folate receptors over controls” value in [11] (over wild-type and G292A controls) is recorded as about 4 fold.
